From PubChem BioAssay AID248 (DTP/NCI, 2004)
Values joined by “and” are separate entries in the source; they are usually repeats but may differ in a detail not shown here. Equal values may be shown once. Inconclusive results and toxic doses are left out. Cut-off read from the data, not from the text of the source: active = T/C of 150% or more; inactive = T/C below 125%.

Test system: L1210 leukemia ip in BDF1 mice, survival T/C
Assay: NCI In Vivo Anticancer Drug Screen. Data for tumor model L1210 Leukemia (intraperitoneal) in B6D2F1 (BDF1) mice
Settings: endpoint: mean survival time, higher = longer survival
Outline: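 Survival endpoint. Drug-treated group vs vehicle group, expressed as T divided by C. Tumor passaged by transplantation.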

[1] = dose: 100.0 mg/kg/injection, schedule: Q01DX009 (ip), vehicle: Klucel (hydroxypropylcellulose) (HPC)
[2] = dose: 100.0 mg/kg/injection, schedule: Q04DX002 (ip), vehicle: saline
[3] = dose: 100.0 mg/kg/injection, schedule: Q04DX003 (ip), vehicle: Klucel (hydroxypropylcellulose) (HPC)
[4] = dose: 200.0 mg/kg/injection, schedule: Q01DX009 (ip), vehicle: Klucel (hydroxypropylcellulose) (HPC)
[5] = dose: 200.0 mg/kg/injection, schedule: Q04DX002 (ip), vehicle: saline
[6] = dose: 200.0 mg/kg/injection, schedule: Q04DX003 (ip), vehicle: Klucel (hydroxypropylcellulose) (HPC)
[7] = dose: 400.0 mg/kg/injection, schedule: Q01DX009 (ip), vehicle: Klucel (hydroxypropylcellulose) (HPC)
[8] = dose: 400.0 mg/kg/injection, schedule: Q04DX003 (ip), vehicle: Klucel (hydroxypropylcellulose) (HPC)
[9] = dose: 100.0 mg/kg/injection, schedule: Q04DX002 (ip), vehicle: saline with Tween-80
[10] = dose: 100.0 mg/kg/injection, schedule: Q04DX003 (ip), vehicle: saline with Tween-80
[11] = dose: 200.0 mg/kg/injection, schedule: Q04DX003 (ip), vehicle: saline with Tween-80
[12] = dose: 50.0 mg/kg/injection, schedule: Q01DX001 (ip), vehicle: carboxymethylcellulose (CMC)
[13] = dose: 100.0 mg/kg/injection, schedule: Q01DX001 (ip), vehicle: carboxymethylcellulose (CMC)
[14] = dose: 400.0 mg/kg/injection, schedule: Q01DX001 (ip), vehicle: carboxymethylcellulose (CMC)
[15] = dose: 25.0 mg/kg/injection, schedule: Q01DX009 (ip), vehicle: saline
[16] = dose: 50.0 mg/kg/injection, schedule: Q01DX009 (ip), vehicle: saline
[17] = dose: 100.0 mg/kg/injection, schedule: Q04DX003 (ip), vehicle: saline
[18] = dose: 100.0 mg/kg/injection, schedule: Q01DX001 (ip), vehicle: saline
[19] = dose: 200.0 mg/kg/injection, schedule: Q01DX001 (ip), vehicle: saline
[20] = dose: 50.0 mg/kg/injection, schedule: Q01DX009 (ip), vehicle: saline with Tween-80
[21] = dose: 100.0 mg/kg/injection, schedule: Q01DX009 (ip), vehicle: saline with Tween-80
[22] = dose: 200.0 mg/kg/injection, schedule: Q01DX001 (ip), vehicle: carboxymethylcellulose (CMC)
[23] = dose: 200.0 mg/kg/injection, schedule: Q01DX009 (ip), vehicle: saline with Tween-80

Measured: T/C

Cc1ccc(C(=O)c2ccc(C)cc2)cc1
inactive: dose: 12.5 mg/kg/injection, schedule: Q04DX002 (ip), vehicle: Klucel (hydroxypropylcellulose) (HPC) 91 % of control | dose: 25.0 mg/kg/injection, schedule: Q04DX002 (ip), vehicle: Klucel (hydroxypropylcellulose) (HPC) 94 % of control | dose: 50.0 mg/kg/injection, schedule: Q04DX002 (ip), vehicle: Klucel (hydroxypropylcellulose) (HPC) 97 % of control | [1] 101 % of control | [2] 101 % of control | [3] 100 % of control | [4] 97 % of control | [5] 101 % of control | [6] 89 % of control | [7] 98 % of control | [8] 100 % of control

CC(=O)OCCC(COC(C)=O)n1ccc(=O)[nH]c1=O (stereo not given)
inactive: [9] 91 % of control | dose: 200.0 mg/kg/injection, schedule: Q04DX002 (ip), vehicle: saline with Tween-80 105 % of control | dose: 400.0 mg/kg/injection, schedule: Q04DX002 (ip), vehicle: saline with Tween-80 102 % of control

CCCCCCCC(=O)CCCC
inactive: [1] 101 % of control | [3] 103 % of control | [4] 98 % of control | [6] 101 % of control | [7] 102 % of control | [8] 101 % of control

CCCCc1ccc(-n2cnc3c(=O)[nH]c(N)nc32)cc1
inactive: [10] 88 % of control | [11] 97 % of control

Cc1ccc(S(=O)(=O)OCCN(CCOS(=O)(=O)c2ccc(C)cc2)c2cccc(F)c2)cc1
inactive: [12] 101 % of control and 114 % of control | dose: 90.0 mg/kg/injection, schedule: Q01DX001 (ip), vehicle: carboxymethylcellulose (CMC) 103 % of control and 122 % of control | [13] 103 % of control and 106 % of control | dose: 135.0 mg/kg/injection, schedule: Q01DX001 (ip), vehicle: carboxymethylcellulose (CMC) 106 % of control and 110 % of control | dose: 300.0 mg/kg/injection, schedule: Q01DX001 (ip), vehicle: carboxymethylcellulose (CMC) 115 % of control and 120 % of control | [14] 109 % of control and 116 % of control

N#CNN=Nc1cc(Cl)c(Cl)c(Cl)c1
inactive: dose: 12.0 mg/kg/injection, schedule: Q01DX009 (ip), vehicle: saline 101 % of control | [15] 109 % of control | dose: 25.0 mg/kg/injection, schedule: Q04DX003 (ip), vehicle: saline 105 % of control | [16] 97 % of control and 104 % of control | dose: 50.0 mg/kg/injection, schedule: Q04DX003 (ip), vehicle: saline 98 % of control | [17] 91 % of control

Cn1cc(N)c(=O)[nH]c1=O
inactive: dose: 50.0 mg/kg/injection, schedule: Q01DX001 (ip), vehicle: saline 101 % of control | [18] 101 % of control | [19] 101 % of control | dose: 400.0 mg/kg/injection, schedule: Q01DX001 (ip), vehicle: saline 103 % of control

CCCCOc1ccc(OC(=O)Nc2cc(Cl)ccc2OC)cc1
inactive: [1] 105 % of control | [3] 96 % of control | [4] 97 % of control | [6] 97 % of control | [7] 113 % of control | [8] 97 % of control

C=C1OC(=O)C(=O)N1CC(=O)O
inactive: [18] 103 % of control | [19] 106 % of control

Oc1cccc(Nc2ccccc2)c1
inactive: dose: 100.0 mg/kg/injection, schedule: Q04DX002 (ip), vehicle: Klucel (hydroxypropylcellulose) (HPC) 106 % of control | dose: 200.0 mg/kg/injection, schedule: Q04DX002 (ip), vehicle: Klucel (hydroxypropylcellulose) (HPC) 95 % of control | dose: 400.0 mg/kg/injection, schedule: Q04DX002 (ip), vehicle: Klucel (hydroxypropylcellulose) (HPC) 95 % of control

CN(C)c1ccc(/C=C/C(=O)Cc2ccccc2)cc1
inactive: dose: 1.56 mg/kg/injection, schedule: Q04DX002 (ip), vehicle: saline with Tween-80 109 % of control | dose: 3.13 mg/kg/injection, schedule: Q04DX002 (ip), vehicle: saline with Tween-80 103 % of control | dose: 6.25 mg/kg/injection, schedule: Q04DX002 (ip), vehicle: saline with Tween-80 98 % of control | dose: 12.5 mg/kg/injection, schedule: Q04DX002 (ip), vehicle: saline with Tween-80 95 % of control and 98 % of control | dose: 50.0 mg/kg/injection, schedule: Q04DX002 (ip), vehicle: saline with Tween-80 104 % of control | [9] 88 % of control

COc1cc2ccc(CCNCc3ccccc3)cc2cc1OC
inactive: [15] 97 % of control | [16] 91 % of control | dose: 100.0 mg/kg/injection, schedule: Q01DX009 (ip), vehicle: saline 90 % of control | [17] 87 % of control

O=C(Cn1cc[n+](CC(=O)c2ccccc2)c1)c1ccccc1
inactive: dose: 25.0 mg/kg/injection, schedule: Q01DX009 (ip), vehicle: saline with Tween-80 98 % of control | [20] 90 % of control | [21] 102 % of control

O=C(Cc1ccccc1)OC1CC2CC1C1CCCC21 (stereo not given)
inactive: [12] 96 % of control | [13] 98 % of control | [22] 104 % of control | [14] 96 % of control

CCN(C(=O)c1cccc(C(=O)N(CC)c2ccccc2C)c1)c1ccccc1C
inactive: [20] 97 % of control | [21] 90 % of control | [10] 99 % of control | [23] 89 % of control | [11] 90 % of control

O=C(Nc1ccc(F)cc1)Nc1cccc(O)c1
inactive: [12] 106 % of control | dose: 50.0 mg/kg/injection, schedule: Q04DX002 (ip), vehicle: carboxymethylcellulose (CMC) 97 % of control and 98 % of control | dose: 50.0 mg/kg/injection, schedule: Q04DX003 (ip), vehicle: carboxymethylcellulose (CMC) 101 % of control | [13] 103 % of control | dose: 100.0 mg/kg/injection, schedule: Q01DX009 (ip), vehicle: carboxymethylcellulose (CMC) 92 % of control and 101 % of control | dose: 100.0 mg/kg/injection, schedule: Q04DX002 (ip), vehicle: carboxymethylcellulose (CMC) 94 % of control and 95 % of control and 98 % of control | dose: 100.0 mg/kg/injection, schedule: Q04DX003 (ip), vehicle: carboxymethylcellulose (CMC) 102 % of control | [22] 96 % of control | dose: 200.0 mg/kg/injection, schedule: Q01DX009 (ip), vehicle: carboxymethylcellulose (CMC) 98 % of control | dose: 200.0 mg/kg/injection, schedule: Q04DX002 (ip), vehicle: carboxymethylcellulose (CMC) 95 % of control and 101 % of control and 90 % of control | dose: 200.0 mg/kg/injection, schedule: Q04DX003 (ip), vehicle: carboxymethylcellulose (CMC) 98 % of control | dose: 400.0 mg/kg/injection, schedule: Q01DX009 (ip), vehicle: carboxymethylcellulose (CMC) 98 % of control and 103 % of control

CN(Cc1cnc2nc(N)nc(N)c2n1)c1cc(Cl)c(C(=O)NC(CCC(=O)O)C(=O)O)cc1Cl (stereo not given)
inactive: dose: 6.25 mg/kg/injection, schedule: Q01DX009 (ip), vehicle: sodium bicarbonate 106 % of control | dose: 12.5 mg/kg/injection, schedule: Q01DX009 (ip), vehicle: sodium bicarbonate 115 % of control

CCCCCC(=O)OCCOC(=O)CCCCC
inactive: [21] 103 % of control | [23] 101 % of control | dose: 400.0 mg/kg/injection, schedule: Q01DX009 (ip), vehicle: saline with Tween-80 92 % of control

CC(=O)OCCc1ccc(F)cc1
inactive: [2] 102 % of control | [5] 105 % of control | dose: 400.0 mg/kg/injection, schedule: Q04DX002 (ip), vehicle: saline 102 % of control

Nc1nc2nc(N=Nc3ccc(C(=O)O)cc3)[nH]c2c(=O)[nH]1
inactive: [3] 96 % of control | [6] 91 % of control | [8] 99 % of control

OCCCC(O)CO (stereo not given)
inactive: dose: 222.0 mg/kg/injection, schedule: Q01DX Z (ip), vehicle: saline 98 % of control | dose: 333.0 mg/kg/injection, schedule: Q01DX Z (ip), vehicle: saline 111 % of control | dose: 500.0 mg/kg/injection, schedule: Q01DX Z (ip), vehicle: saline 102 % of control

O=C(O)/C=C/C1CCCCC1
inactive: dose: 75.0 mg/kg/injection, schedule: Q01DX001 (ip), vehicle: saline 97 % of control | dose: 150.0 mg/kg/injection, schedule: Q01DX001 (ip), vehicle: saline 95 % of control | dose: 300.0 mg/kg/injection, schedule: Q01DX001 (ip), vehicle: saline 95 % of control
